Our source for the MBC and bacteriolytic activity values is patent US7531509B2, “Papillosin antimicrobial peptide, a gene coding said peptide, a vector, a transformed organism and a compound containing said organism” (Centre National de la Recherche Scientifique—CNRS, priority 2003, dated 2009).

In one experiment the test system is M. luteus. Type of experiment: cell-based. The settings on record: 18 h. The protocol: (§1) Complementary tests were carried out to determine the spectrum of activity of papillosin. The minimal bactericidal concentration (MBC) for each bacterial strain tested is determined as follows: The peptide is placed in a solution containing 0.01% acetic acid and 0.2% bovine serum albumin (BSA), then, serial dilutions of 2 2 are realized in the same 0.01% solution of acetic acid and 0.2% BSA. 10 μl of each dilution are incubated in sterile 96-well plates (Becton Dickinson, USA, ref: 18572) in the presence of 100 μl of a bacterial suspension brought to an optical density of 0.001 at 600 nm in the Mueller Hinton environment (MLHB, SIGMA, ref: M-9677).
(§2) The bacterial growth is monitored after 18 hours of incubation under agitation. The MBC is determined by spreading out the content of the first three wells in which no bacterial growth was observed. This spreading out was carried out on Petri dishes on which an agar was poured prepared from the Mueller Hinton environment. These dishes were then incubated 18 hours. The MBC corresponds to the lowest concentration of peptide for which no bacterial colony was observed on the incubated dishes.

Experiment [1] concerns gram-positive and gram-negative bacteria. The experiment in a line: Spectrum of antibacterial activity (summary). The experiment is classed as cell-based. The settings on record: on gram-positive and gram-negative bacteria. The protocol: as §1, §2

No end group written: not given here.

Broadly, the MBC is the lowest tested concentration that kills the bacteria rather than only halting them. Low readings indicate more potent killing, high ones less potent killing. Take “GFWKKVGSAAWGGVKAAAKGAAVGGLNALAKHIQ [papillosin]”: the MBC with M. luteus is 0.125 to 0.25 µM. In experiment [1], the bacteriolytic activity entry is listed as “powerful bacteriolytic activity”.
